Reference: ChEMBL document CHEMBL1201862, “PubChem BioAssay data set” (2004)
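1) Cells in 96-well plates. 2) Compound, 48 h, 5 concentrations. 3) Linear interpolation between surrounding doses. 4) Unreached endpoint = highest concentration. At the GI50, growth is halved.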 Active and inactive are the calls of the source. No stated cut-off is given here; in the data, active = GI50 up to about 1.1 µM and inactive = higher.

Experiments:
Assay in all cases: DTP human tumour cell line panel, 48 h
[1] = system: SF-295
[2] = system: SR
[3] = system: RPMI-8226
[4] = system: SK-MEL-5
[5] = system: SK-MEL-28
[6] = system: UACC-62
[7] = system: SNB-19
[8] = system: U-251
[9] = system: HCC 2998
[10] = system: A549
[11] = system: NCI/ADR-RES
[12] = system: OVCAR-8
[13] = system: 786-0
[14] = system: IGROV-1
[15] = system: MOLT-4
[16] = system: MCF7
[17] = system: SK-OV-3
[18] = system: COLO 205
[19] = system: M14
[20] = system: CCRF-CEM

O=C1c2ccccc2C(=O)N1n1c(Cc2ccc([N+](=O)[O-])cc2)n[nH]c1=O
GI50 [1]: > 100 µM (inactive)
GI50 [2]: > 100 µM (inactive)
GI50 [3]: > 100 µM (inactive)
GI50 [4]: > 100 µM (inactive)
GI50 [5]: > 100 µM (inactive)
GI50 [6]: 36.3 µM (inactive)
GI50 [7]: > 100 µM (inactive)
GI50 [8]: > 100 µM (inactive)
GI50 [9]: > 100 µM (inactive)
GI50 [10]: > 100 µM (inactive)
GI50 [11]: > 100 µM (inactive)
GI50 [12]: > 100 µM (inactive)
GI50 [13]: > 100 µM (inactive)
GI50 [14]: > 100 µM (inactive)
GI50 [15]: > 100 µM (inactive)
GI50 [16]: > 100 µM (inactive)

O=C(COc1ccc(Cl)c(Cl)c1)Nc1ccc[n+](Cc2ccc(S(=O)(=O)F)c(Cl)c2)c1
GI50 [1]: > 100 µM (inactive)
GI50 [2]: 40.6 µM (inactive)
GI50 [3]: 1.02 µM (active)
GI50 [4]: > 100 µM (inactive)
GI50 [5]: > 100 µM (inactive)
GI50 [6]: > 100 µM (inactive)
GI50 [7]: > 100 µM (inactive)
GI50 [17]: > 100 µM (inactive)
GI50 [8]: > 100 µM (inactive)
GI50 [10]: > 100 µM (inactive)
GI50 [11]: > 100 µM (inactive)
GI50 [18]: > 100 µM (inactive)
GI50 [12]: > 100 µM (inactive)
GI50 [13]: > 100 µM (inactive)
GI50 [14]: > 100 µM (inactive)
GI50 [15]: 25.4 µM (inactive)
GI50 [16]: > 100 µM (inactive)
GI50 [19]: > 100 µM (inactive)

COc1cc(N(C)C)ccc1C=c1c2ccccc2n2c1cc(-c1ccccc1)[n+]2C
GI50 [20]: 0.208 µM (active)
GI50 [1]: 0.336 µM (active)
GI50 [3]: 0.151 µM (active)
GI50 [4]: 0.637 µM (active)
GI50 [5]: 0.802 µM (active)
GI50 [6]: 0.582 µM (active)
GI50 [7]: 0.372 µM (active)
GI50 [17]: 0.347 µM (active)
GI50 [8]: 0.0581 µM (active)
GI50 [9]: 0.48 µM (active)
GI50 [10]: 0.197 µM (active)
GI50 [11]: 6.47 µM (inactive)
GI50 [18]: 0.151 µM (active)
GI50 [12]: 0.163 µM (active)
GI50 [13]: 0.197 µM (active)
GI50 [15]: 0.222 µM (active)
GI50 [16]: 0.302 µM (active)
GI50 [19]: 0.411 µM (active)

COc1cc(Br)cc2cc(C3=CSC4=NCCN34)c(=O)oc12
GI50 [20]: 25.8 µM (inactive)
GI50 [1]: 19.4 µM (inactive)
GI50 [2]: 21.9 µM (inactive)
GI50 [3]: 22.7 µM (inactive)
GI50 [4]: 20 µM (inactive)
GI50 [5]: 29.5 µM (inactive)
GI50 [6]: 17.8 µM (inactive)
GI50 [7]: 18.1 µM (inactive)
GI50 [17]: 27.9 µM (inactive)
GI50 [8]: 18.1 µM (inactive)
GI50 [10]: 21.3 µM (inactive)
GI50 [11]: 65.9 µM (inactive)
GI50 [18]: 20.7 µM (inactive)
GI50 [12]: 17.8 µM (inactive)
GI50 [13]: 18.4 µM (inactive)
GI50 [14]: 17.6 µM (inactive)
GI50 [15]: 20 µM (inactive)
GI50 [16]: 18 µM (inactive)
GI50 [19]: 22.2 µM (inactive)
